Test results from patent US12503444B2, “Compound containing benzene ring and application thereof” (WUHAN LL SCIENCE AND TECHNOLOGY DEVELOPMENT CO., LTD., priority 2019, dated 2025).
Like-named read-outs stand apart in the source and are kept apart here.

How the values were obtained:
[1] = In vitro metabolic stability, liver microsome incubation (human); assay type: in vitro ADME; settings: 1 mg/mL liver microsome protein, 37° C.; for half-life: human, liver microsomes, read-out: T1/2 in human liver microsome min
Description: (§1) The in vitro metabolic stability of the compounds disclosed herein was determined through incubation of liver microsomes of various species. A proper amount of test compound was added into a liver microsome reaction system (1 mg/mL liver microsome protein, 25 U/mL glucose-6 phosphate dehydrogenase, 1 mM NADP, 6 mM D-glucose 6-phosphate and 5 mM MgCl2), and then the mixture was incubated in a water bath kettle at 37° C. to start the reaction. At each time point, 100 μL of the reaction system was added into a centrifuge tube containing 400 μL of internal standard working solution (containing a 200 ng/mL solution of dexamethasone, diclofenac, tolbutamide and labetalol in acetonitrile) precooled at 0° C. so as to stop the reaction, and the mixture was then centrifuged at 10,000 g for 10 min at 4° C. The supernatant was collected for LC-MS assay so as to obtain the values of in vitro metabolic half-life of the test compounds in liver microsomes of various species.

[2] = system: Male Dunkin Hartley guinea pigs; assay: Citric acid only cough model in guinea pigs; assay type: in vivo; settings: guinea pig; for Cough inhibition rate Vs vehicle (%) / Cough latency / Mean number of coughs / Cough inhibition rate Vs baseline (%): 17.5% citric acid; for Cough inhibition rate Vs baseline (%): before vs after administration
Description: Male Dunkin Hartley guinea pigs (300-350 g) were placed in an animal atomization box, and then the door of the atomization box was closed while the ultrasonic atomizer (Guangdong Yuehua) was turned on. 17.5% citric acid gas was introduced into the atomization box at a maximum atomization rate (about 2 mL/min) for 20 s, and coughs of the animals within 10 min were continuously observed from the time of the start of atomization. During the 10-min observation, coughs of the animals needed to be counted manually, and the number of coughs were judged according to cough postures of the guinea pigs, such as abdominal twitching, mouth opening, and head inclining downward abruptly. The number of coughs during the first 5 min and that during 10 min were recorded, and the cough latency of the guinea pigs, namely the time from the initiation of citric acid induction to the appearance of the 1st cough, was also recorded.
Cough inhibition rate Vs vehicle represents the percentage of reduction
[formula] in the number of coughs in the administration group compared to the vehicle group upon citric acid challenge; Cough inhibition rate Vs baseline represents the percentage of reduction
[formula] in the number of coughs in the administration group before and after administration.

[3] = In vitro cytotoxicity assay in HepG2 cells, CCK-8 method; settings: human
Description: (§2) In vitro cytotoxicity assay for the compounds disclosed herein was performed in HepG2 cells using the CCK-8 method. HepG2 cells (Beina Bio) in the logarithmic growth phase were collected, the concentration of cell suspension was adjusted, and then the cells were plated on a 96-well cell culture plate at 50,000 cells/well. The cells were then incubated overnight in a cell incubator (5%/humidity, 37° C.), and after 80-90% cell confluence was achieved, test compounds or vehicle (DMSO) at various concentration gradients were added after medium change. The resulting mixture was incubated in the cell incubator (5% humidity, 37° C.) for 48 h. After the treatment, the medium in the plate was discarded. The plate was washed twice with PBS, added with CCK-8 working solution (Beyotime) at 100 μL per well, and then incubated at 37° C. for 1.5 h away from the light. Absorbance at OD450 nm was measured for each well on a microplate reader, and CC50 value of each compound was analyzed and calculated.

[4] = In vitro metabolic stability, liver microsome incubation (guinea pig); assay type: in vitro ADME; settings: 1 mg/mL liver microsome protein, 37° C.; for half-life: guinea pig, liver microsomes, read-out: T1/2 in guinea pig liver microsome min
Description: as §1

[5] = molecular target: T1, hP2X4 (human purinergic P2X receptor subtype 4) (Homo sapiens, UniProt Q99571); assay: FLIPR assay of intracellular calcium increase induced by activation of hP2X4 expressed in HEK293 cells (agonist BZ-ATP 2.5 μM); assay type: cell-based; settings: HEK293 cells stably expressing hP2X4, FLIPR, read-out: P2X4 IC50
T1 sequence (Q99571 1-404 isoform Q99571-2): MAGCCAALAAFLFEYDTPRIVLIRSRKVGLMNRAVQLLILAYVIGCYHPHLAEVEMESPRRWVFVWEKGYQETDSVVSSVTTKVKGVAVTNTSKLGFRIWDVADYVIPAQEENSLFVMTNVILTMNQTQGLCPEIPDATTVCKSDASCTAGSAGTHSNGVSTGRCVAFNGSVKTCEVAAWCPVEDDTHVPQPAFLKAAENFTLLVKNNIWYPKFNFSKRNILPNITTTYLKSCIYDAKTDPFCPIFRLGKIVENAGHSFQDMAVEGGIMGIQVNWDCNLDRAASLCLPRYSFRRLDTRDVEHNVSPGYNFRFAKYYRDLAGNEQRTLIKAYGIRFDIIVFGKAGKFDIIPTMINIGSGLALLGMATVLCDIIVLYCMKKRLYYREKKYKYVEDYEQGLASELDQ
Procedure, shortened: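 HEK293 cells stably expressing hP2X4, loaded with Calcium 6 dye for 1.5 h at 37° C, then preincubated with compound 30 min at room temperature.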

[6] = In vitro metabolic stability, liver microsome incubation (rat); assay type: in vitro ADME; settings: 1 mg/mL liver microsome protein, 37° C.; for half-life: rat, liver microsomes, read-out: T1/2 in rat liver microsome min
Description: as §1

HepG2 cells [7] = system: HepG2 cells
Description: as §2

HepG2 cells [8] = assay: In vitro cytotoxicity assay in HepG2 cells, CCK-8 method; settings: read-out: HepG2 CC50, 48 h, CCK-8
Description: as §2

[9] = 20 mg/kg group, before administration (baseline)
[10] = 60 mg/kg group, before administration (baseline)

NS(=O)(=O)c1cc(NC(=O)Cc2ccccc2Cl)cc2nn(C(F)F)cc12 [Compound 1, 2-(2-chlorophenyl)-N-(2-(difluoromethyl)-4-sulfamoyl-2H-indazol-6-yl)acetamide]
half-life [1]: 11.5 h
Effect on number of coughs and cough latency (in words) ([2]; 20 mg/kg and 60 mg/kg, compared with vehicle group or before administration): reduce the number of coughs and prolong the cough latency in a dose-dependent manner
Effect on number of coughs and cough latency (in words) ([2]; 60 mg/kg, no significant difference from dextromethorphan at the same dosage): significant improvement effect
Cough inhibition rate Vs vehicle (%) ([2]; 20 mg/kg): 20.59%
Cough latency [2, 9]: 94.29 s
Mean number of coughs [2, 9]: 18.57
Cough latency ([2]; 20 mg/kg, after administration): 214.29 s
Mean number of coughs ([2]; 20 mg/kg, after administration): 15.29
Cough inhibition rate Vs baseline (%) ([2]; 20 mg/kg): 17.69%
Cough inhibition rate Vs vehicle (%) ([2]; 60 mg/kg): 46.75%
Cough latency [2, 10]: 84.88 s
Mean number of coughs [2, 10]: 18.50
Cough latency ([2]; 60 mg/kg, after administration): 221.75 s
Mean number of coughs ([2]; 60 mg/kg, after administration): 10.25
Cough inhibition rate Vs baseline (%) ([2]; 60 mg/kg): 44.59%
CC50 at 48 h [3]: > 200 µM
half-life [4]: 2.58 h
IC50 ([5]; numeric values): 0.0291 µM
half-life [6]: 6.03 h

CCCn1ncc2c(S(N)(=O)=O)cc(NC(=O)Cc3ccccc3Cl)cc21 [Compound 5-B, 2-(2-chlorophenyl)-N-(1-propyl-4-sulfonylamino-1H-indazol-6-yl)acetamide]
T1/2 in human liver microsome min [1]: 1.094 h
CC50 (HepG2 cells [7]): > 200 µM
IC50 ([5]; numeric values): 0.0022 µM

CC(C)Cn1ncc2c(S(N)(=O)=O)cc(NC(=O)Cc3ccccc3Cl)cc21 [Compound 7-B, 2-(2-chlorophenyl)-N-(1-isobutyl-4-sulfamoyl-2H-indazol-6-yl)acetamide]
T1/2 in human liver microsome min [1]: 0.5413 h
CC50 (HepG2 cells [7]): 150 µM
IC50 ([5]; numeric values): 0.00233 µM

CC(C)CCn1ncc2c(S(N)(=O)=O)cc(NC(=O)Cc3ccccc3Cl)cc21 [Compound 8-B, 2-(2-chlorophenyl)-N-(1-isopentyl-4-sulfamoyl-2H-indazol-6-yl)acetamide]
T1/2 in human liver microsome min [1]: 0.4488 h
CC50 (HepG2 cells [7]): > 200 µM
IC50 ([5]; numeric values): 0.00038 µM

N#Cc1ccc(Cn2cc3c(S(N)(=O)=O)cc(NC(=O)Cc4ccccc4Cl)cc3n2)cc1 [Compound 91, 2-(2-chlorophenyl)-N-(2-(4-cyanobenzyl)-4-sulfamoyl-2H-indazol-6-yl)acetamide]
half-life [1]: 3.23 h
CC50 at 48 h [3]: > 200 µM
half-life [4]: 0.809 h
IC50 ([5]; class symbols): ≤ 0.01 µM
half-life [6]: 1.84 h

COc1ccc(CN(Cc2ccc(OC)cc2)S(=O)(=O)c2cc(NC(=O)Cc3ccccc3Cl)cc3c2cnn3Cc2ccc(C#N)cc2)cc1 [Compound 91A, N-(4-(N,N-bis(4-methoxybenzyl)sulfamoyl)-1-(4-cyanobenzyl)-1H-indazol-6-yl)-2-(2-chlorophenyl)acetamide]
T1/2 in human liver microsome min [1]: 1.6827 h
CC50 (HepG2 cells [8]): > 200 µM
T1/2 in guinea pig liver microsome min [4]: 1.424 h
IC50 ([5]; class symbols): ≤ 0.01 µM
T1/2 in rat liver microsome min [6]: 2.0857 h
